Test results: ChEMBL document CHEMBL3991601, “The target landscape of clinical kinase drugs” (Science, 2017)
Calls of active or inactive are those of the source. Cut-off read from the data, not from the text of the source, for most assays here: actives have a measured Kd and inactives only a lower limit.

Tests used:
[1] = biological target: T1, Glycogen phosphorylase, liver form (Homo sapiens, UniProt P06737); format: subcellular, K-562, COLO 205, SK-N-BE(2) and MV-4-11, Cell lysate; details: read-out: Kd apparent
T1 sequence (P06737 whole entry): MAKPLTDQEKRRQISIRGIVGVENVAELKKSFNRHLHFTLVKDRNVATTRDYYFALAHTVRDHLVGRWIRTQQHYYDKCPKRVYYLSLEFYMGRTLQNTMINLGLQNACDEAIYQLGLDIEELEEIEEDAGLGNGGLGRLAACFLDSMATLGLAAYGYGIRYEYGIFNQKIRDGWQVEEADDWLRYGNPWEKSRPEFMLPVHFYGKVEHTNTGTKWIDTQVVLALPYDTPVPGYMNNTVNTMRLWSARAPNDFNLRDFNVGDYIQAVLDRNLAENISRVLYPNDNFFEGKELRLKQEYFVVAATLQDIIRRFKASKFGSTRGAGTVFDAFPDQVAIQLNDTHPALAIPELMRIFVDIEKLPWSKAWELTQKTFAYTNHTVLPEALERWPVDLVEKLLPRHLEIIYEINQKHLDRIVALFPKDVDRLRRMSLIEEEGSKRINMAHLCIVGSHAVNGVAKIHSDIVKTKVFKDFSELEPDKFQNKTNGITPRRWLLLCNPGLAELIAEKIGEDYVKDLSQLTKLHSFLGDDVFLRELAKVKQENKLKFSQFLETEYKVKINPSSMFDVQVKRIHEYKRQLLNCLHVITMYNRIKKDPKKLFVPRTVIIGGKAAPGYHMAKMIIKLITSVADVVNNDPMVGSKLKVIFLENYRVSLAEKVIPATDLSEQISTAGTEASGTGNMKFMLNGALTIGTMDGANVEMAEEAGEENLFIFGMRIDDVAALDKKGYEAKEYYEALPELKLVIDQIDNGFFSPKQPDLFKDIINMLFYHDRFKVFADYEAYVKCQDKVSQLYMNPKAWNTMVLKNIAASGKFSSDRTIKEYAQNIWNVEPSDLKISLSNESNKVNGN

[2] = biological target: Dual specificity testis-specific protein kinase 1 (Homo sapiens, UniProt Q15569)
Sequence of Dual specificity testis-specific protein kinase 1 (Q15569 whole entry): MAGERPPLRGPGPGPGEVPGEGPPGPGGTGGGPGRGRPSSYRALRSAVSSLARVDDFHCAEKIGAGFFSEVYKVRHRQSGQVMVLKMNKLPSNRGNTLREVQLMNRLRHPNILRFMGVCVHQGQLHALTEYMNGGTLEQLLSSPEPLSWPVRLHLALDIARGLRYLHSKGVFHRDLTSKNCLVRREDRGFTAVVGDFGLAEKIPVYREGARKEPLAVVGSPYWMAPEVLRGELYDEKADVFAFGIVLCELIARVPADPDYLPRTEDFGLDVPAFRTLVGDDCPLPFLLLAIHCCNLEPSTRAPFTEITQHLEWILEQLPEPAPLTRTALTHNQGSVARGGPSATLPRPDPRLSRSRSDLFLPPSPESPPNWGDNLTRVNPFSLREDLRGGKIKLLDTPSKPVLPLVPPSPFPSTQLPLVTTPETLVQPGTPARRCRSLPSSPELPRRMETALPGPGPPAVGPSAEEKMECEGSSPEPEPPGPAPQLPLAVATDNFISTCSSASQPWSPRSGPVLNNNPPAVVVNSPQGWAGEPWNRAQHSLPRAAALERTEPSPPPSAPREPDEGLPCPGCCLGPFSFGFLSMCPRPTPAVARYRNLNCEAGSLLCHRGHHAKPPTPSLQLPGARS

[3] = biological target: Tyrosine-protein kinase Yes (Homo sapiens, UniProt P07947)
Sequence of Tyrosine-protein kinase Yes (P07947 whole entry): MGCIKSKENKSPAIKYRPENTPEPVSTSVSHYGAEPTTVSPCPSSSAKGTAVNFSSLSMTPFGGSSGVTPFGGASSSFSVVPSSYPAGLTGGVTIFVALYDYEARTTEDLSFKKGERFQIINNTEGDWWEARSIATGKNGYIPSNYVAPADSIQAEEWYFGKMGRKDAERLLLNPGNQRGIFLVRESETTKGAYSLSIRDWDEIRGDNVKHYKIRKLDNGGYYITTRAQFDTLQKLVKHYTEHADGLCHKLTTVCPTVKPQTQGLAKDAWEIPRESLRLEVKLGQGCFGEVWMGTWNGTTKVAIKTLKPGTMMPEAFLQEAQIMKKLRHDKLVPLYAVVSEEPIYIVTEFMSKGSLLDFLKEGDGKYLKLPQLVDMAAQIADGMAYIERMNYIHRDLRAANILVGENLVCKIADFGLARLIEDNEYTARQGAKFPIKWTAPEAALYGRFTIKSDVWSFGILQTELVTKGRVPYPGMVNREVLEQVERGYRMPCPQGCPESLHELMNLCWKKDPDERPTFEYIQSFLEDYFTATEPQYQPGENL

[4] = biological target: T2, Uncharacterized protein FLJ45252 (Homo sapiens, UniProt Q6ZSR9); details: read-out: Kd apparent; k-562, colo 205, sk-n-be(2) and mv-4-11
T2 sequence (Q6ZSR9 whole entry): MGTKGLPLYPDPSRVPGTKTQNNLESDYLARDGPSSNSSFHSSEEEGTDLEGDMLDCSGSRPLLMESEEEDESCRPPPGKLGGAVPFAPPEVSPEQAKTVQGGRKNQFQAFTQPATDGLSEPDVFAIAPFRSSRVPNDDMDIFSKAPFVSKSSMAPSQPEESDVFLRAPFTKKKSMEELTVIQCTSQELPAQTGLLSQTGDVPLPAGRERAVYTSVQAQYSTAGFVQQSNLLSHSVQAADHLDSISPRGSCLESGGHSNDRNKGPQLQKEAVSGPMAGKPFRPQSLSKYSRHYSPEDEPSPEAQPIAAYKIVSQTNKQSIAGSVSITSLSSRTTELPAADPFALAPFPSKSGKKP

[5] = biological target: G protein-coupled receptor kinase 6 (Homo sapiens, UniProt P43250)
Sequence of G protein-coupled receptor kinase 6 (P43250 whole entry): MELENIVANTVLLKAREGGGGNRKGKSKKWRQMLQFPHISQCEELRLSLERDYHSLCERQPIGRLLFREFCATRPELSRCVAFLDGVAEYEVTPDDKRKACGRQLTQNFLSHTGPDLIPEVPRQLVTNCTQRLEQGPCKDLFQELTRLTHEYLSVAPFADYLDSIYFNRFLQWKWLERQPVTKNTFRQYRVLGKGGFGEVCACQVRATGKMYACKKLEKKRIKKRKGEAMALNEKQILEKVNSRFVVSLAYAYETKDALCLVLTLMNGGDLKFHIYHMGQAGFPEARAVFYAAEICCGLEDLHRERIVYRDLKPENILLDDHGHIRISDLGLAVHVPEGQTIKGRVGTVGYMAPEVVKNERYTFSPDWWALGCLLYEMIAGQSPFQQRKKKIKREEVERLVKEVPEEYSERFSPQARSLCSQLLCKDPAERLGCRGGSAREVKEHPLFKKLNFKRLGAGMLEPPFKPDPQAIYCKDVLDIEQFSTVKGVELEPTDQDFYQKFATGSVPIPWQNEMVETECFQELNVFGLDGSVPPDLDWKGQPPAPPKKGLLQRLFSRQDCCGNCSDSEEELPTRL

[6] = biological target: Adenylate kinase 2, mitochondrial (Homo sapiens, UniProt P54819)
[7] = biological target: PAS domain-containing serine/threonine-protein kinase (Homo sapiens, UniProt Q96RG2)
Sequence of PAS domain-containing serine/threonine-protein kinase (Q96RG2 whole entry, the tested form may be a part): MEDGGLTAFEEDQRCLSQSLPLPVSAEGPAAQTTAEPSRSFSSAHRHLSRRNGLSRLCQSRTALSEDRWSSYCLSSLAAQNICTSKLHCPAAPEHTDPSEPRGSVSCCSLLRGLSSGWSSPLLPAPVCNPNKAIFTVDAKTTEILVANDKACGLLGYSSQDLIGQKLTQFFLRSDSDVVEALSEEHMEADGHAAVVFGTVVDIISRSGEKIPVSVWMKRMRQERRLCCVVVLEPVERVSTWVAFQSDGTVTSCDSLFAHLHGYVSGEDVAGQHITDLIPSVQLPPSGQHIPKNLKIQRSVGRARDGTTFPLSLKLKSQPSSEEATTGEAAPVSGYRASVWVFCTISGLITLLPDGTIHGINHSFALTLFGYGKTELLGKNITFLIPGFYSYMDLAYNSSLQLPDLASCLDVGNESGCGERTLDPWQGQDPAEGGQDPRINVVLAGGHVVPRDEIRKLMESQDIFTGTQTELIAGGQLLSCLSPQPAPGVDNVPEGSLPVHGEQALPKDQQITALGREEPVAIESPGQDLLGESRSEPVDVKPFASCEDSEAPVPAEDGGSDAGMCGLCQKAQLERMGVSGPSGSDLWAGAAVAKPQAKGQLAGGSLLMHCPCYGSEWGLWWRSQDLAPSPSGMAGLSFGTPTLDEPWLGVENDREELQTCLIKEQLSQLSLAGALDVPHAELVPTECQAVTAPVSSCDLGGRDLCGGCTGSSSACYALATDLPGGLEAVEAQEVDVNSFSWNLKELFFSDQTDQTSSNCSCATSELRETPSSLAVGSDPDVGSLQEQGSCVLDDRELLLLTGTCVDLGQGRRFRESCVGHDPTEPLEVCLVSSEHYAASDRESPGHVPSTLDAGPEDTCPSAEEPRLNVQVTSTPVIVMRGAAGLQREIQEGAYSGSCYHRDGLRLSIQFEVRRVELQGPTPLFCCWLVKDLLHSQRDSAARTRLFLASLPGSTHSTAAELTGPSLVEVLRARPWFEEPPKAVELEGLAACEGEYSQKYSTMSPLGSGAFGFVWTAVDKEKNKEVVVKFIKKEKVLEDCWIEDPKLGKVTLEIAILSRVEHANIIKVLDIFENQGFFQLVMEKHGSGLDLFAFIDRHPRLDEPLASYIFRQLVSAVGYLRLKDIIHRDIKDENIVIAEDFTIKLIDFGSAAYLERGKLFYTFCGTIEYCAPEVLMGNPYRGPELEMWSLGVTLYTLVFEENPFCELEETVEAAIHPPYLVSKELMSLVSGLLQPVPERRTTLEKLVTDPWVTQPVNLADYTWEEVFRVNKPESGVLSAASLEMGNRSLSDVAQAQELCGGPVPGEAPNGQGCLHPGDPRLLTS

[8] = biological target: Serine/threonine-protein kinase 10 (Homo sapiens, UniProt O94804)
Sequence of Serine/threonine-protein kinase 10 (O94804 whole entry): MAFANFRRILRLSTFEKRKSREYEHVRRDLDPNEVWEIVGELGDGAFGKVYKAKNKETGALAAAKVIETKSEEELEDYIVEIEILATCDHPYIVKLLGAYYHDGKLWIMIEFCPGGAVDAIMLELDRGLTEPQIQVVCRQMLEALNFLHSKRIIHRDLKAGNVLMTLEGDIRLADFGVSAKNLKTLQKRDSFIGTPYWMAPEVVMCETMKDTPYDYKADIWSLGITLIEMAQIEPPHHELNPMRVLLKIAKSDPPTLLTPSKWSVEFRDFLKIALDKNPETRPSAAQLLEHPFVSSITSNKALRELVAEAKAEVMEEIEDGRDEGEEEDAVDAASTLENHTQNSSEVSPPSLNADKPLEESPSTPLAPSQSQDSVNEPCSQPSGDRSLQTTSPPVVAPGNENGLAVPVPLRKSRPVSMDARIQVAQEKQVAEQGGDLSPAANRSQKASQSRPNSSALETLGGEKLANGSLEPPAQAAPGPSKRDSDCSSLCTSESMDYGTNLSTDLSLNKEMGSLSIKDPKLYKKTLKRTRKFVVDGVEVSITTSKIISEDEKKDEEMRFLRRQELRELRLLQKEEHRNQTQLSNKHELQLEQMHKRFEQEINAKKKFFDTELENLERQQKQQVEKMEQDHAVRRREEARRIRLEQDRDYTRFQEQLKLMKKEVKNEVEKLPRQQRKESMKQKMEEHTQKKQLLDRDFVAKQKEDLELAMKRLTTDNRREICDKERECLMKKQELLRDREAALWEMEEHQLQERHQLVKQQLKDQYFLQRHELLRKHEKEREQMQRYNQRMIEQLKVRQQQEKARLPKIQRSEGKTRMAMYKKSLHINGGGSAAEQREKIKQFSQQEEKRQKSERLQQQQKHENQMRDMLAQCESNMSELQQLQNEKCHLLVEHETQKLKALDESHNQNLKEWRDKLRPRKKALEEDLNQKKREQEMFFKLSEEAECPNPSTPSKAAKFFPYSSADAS

[9] = biological target: AP2-associated protein kinase 1 (Homo sapiens, UniProt Q2M2I8)
Sequence of AP2-associated protein kinase 1 (Q2M2I8 whole entry, canonical isoform): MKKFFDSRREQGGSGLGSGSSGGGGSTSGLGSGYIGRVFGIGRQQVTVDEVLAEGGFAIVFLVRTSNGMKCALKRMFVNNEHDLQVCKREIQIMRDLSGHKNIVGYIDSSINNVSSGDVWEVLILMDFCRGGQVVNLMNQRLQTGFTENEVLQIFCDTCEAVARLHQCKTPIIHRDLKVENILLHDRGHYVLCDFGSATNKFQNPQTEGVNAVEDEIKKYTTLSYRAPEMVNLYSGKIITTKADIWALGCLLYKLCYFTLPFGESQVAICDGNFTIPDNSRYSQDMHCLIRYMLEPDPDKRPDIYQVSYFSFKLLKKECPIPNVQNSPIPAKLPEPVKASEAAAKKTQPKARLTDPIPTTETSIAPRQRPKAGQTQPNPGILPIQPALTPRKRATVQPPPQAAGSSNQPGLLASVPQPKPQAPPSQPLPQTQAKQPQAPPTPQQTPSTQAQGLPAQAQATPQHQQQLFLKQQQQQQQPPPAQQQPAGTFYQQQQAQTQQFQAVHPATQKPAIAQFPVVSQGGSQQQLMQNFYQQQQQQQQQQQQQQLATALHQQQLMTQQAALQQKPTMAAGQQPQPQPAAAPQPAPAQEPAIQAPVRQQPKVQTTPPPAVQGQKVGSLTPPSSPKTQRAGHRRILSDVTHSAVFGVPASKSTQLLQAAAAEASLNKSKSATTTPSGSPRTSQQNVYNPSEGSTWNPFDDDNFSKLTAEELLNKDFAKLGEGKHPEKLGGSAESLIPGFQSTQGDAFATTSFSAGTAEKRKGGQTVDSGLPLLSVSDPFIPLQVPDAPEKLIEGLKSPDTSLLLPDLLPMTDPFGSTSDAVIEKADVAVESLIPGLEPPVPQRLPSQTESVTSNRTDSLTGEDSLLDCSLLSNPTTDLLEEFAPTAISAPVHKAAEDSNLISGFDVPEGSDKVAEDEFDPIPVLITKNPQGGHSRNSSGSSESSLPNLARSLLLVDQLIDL

[10] = biological target: Casein kinase I isoform alpha (Homo sapiens, UniProt P48729)
Aurora kinase A = biological target: T3, Aurora kinase A (Homo sapiens, UniProt O14965)
T3 sequence (O14965 whole entry): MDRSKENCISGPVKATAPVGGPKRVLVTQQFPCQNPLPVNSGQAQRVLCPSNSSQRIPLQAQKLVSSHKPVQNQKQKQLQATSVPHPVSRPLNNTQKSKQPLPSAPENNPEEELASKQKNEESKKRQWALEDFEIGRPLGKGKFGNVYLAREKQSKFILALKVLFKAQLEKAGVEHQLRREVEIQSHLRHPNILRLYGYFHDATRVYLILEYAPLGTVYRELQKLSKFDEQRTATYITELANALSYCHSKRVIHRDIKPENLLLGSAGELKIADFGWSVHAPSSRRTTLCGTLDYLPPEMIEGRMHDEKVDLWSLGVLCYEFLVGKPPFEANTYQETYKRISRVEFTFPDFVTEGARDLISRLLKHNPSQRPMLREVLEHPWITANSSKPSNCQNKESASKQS

[11] = biological target: Tyrosine-protein kinase SYK (Homo sapiens, UniProt P43405)
Note: in the data inactive means no Kd found up to 30 µM.

| Kd [1] | Kd [2] | Kd [3] | Kd [4] | Kd [5] | Kd [6] | Kd [7] | Kd [8] | Kd [9] | Kd [10] | Kd (Aurora kinase A) | Kd [11] | Compound |
| --- | --- | --- | --- | --- | --- | --- | --- | --- | --- | --- | --- | --- |
| > 30 µM (inactive) | > 30 µM (inactive) | 3.94 µM (active) | > 30 µM (inactive) | > 30 µM (inactive) | > 30 µM (inactive) | > 30 µM (inactive) | 1.91 µM (active) | > 30 µM (inactive) | > 30 µM (inactive) | > 30 µM (inactive) | > 30 µM (inactive) | COc1cc2c(Nc3ccc(Cl)c(Cl)c3F)ncnc2cc1OC[C@@H]1C[C@@H]2CN(C)C[C@@H]2C1 [TESEVATINIB] |
| > 30 µM (inactive) | > 30 µM (inactive) | > 30 µM (inactive) | > 30 µM (inactive) | > 30 µM (inactive) | > 30 µM (inactive) | > 30 µM (inactive) | > 30 µM (inactive) | > 30 µM (inactive) | > 30 µM (inactive) | > 30 µM (inactive) | > 30 µM (inactive) | O=C(Cc1ccc(-c2ccc(OCCN3CCOCC3)cc2)cn1)NCc1ccccc1 [TIRBANIBULIN] |
| > 30 µM (inactive) | > 30 µM (inactive) | > 30 µM (inactive) | > 30 µM (inactive) | > 30 µM (inactive) | > 30 µM (inactive) | > 30 µM (inactive) | > 30 µM (inactive) | > 30 µM (inactive) | > 30 µM (inactive) | > 30 µM (inactive) | > 30 µM (inactive) | O=C1NC(=O)[C@@H](c2cn3c4c(cccc24)CCC3)[C@@H]1c1c[nH]c2ccccc12 [TIVANTINIB] |
| > 30 µM (inactive) | > 30 µM (inactive) | > 30 µM (inactive) | > 30 µM (inactive) | > 30 µM (inactive) | > 30 µM (inactive) | > 30 µM (inactive) | 9.95 µM (active) | > 30 µM (inactive) | > 30 µM (inactive) | > 30 µM (inactive) | > 30 µM (inactive) | CN1C/C=C/CCOc2cccc(c2)-c2ccnc(n2)Nc2cccc(c2)C1 [ZOTIRACICLIB] |
